In article PMC7177633, “Effective Cellular Transport of Ortho-Halogenated Sulfonamide Derivatives of Metformin Is Related to Improved Antiproliferative Activity and Apoptosis Induction in MCF-7 Cells” (International Journal of Molecular Sciences, 2020):
Read-outs that look alike come from different tables or passages of the source.

Key:
OCTs = assay: Inhibition of [14C]choline uptake in MDA-MB-231 cells (competitive inhibition assay); type: cell-based, human; settings: mean ± SD (n = 3)
Description: The following day, after removal of the culture medium, the cells were carefully washed with prewarmed HBSS (Hanks’ balanced salt solution) containing 125 mM NaCl, 4.8 mM KCl, 1.2 mM MgSO4, 1.2 mM KH2PO4, 1.3 mM CaCl2, 5.6 mM glucose and 25 mM HEPES (pH 7.4). […] Then, the cells were washed three times with ice-cold HBSS (500 μL) and were lysed with 250 μL of 0.1-M NaOH in the ice bath, and the lysate was mixed with 1.0 mL of an emulsifier safe cocktail (PerkinElmer, Waltham, MA, USA). The radioactivity was measured by liquid scintillation counting (MicroBeta^2 counter, PerkinElmer, Waltham, MA, USA). The studies were carried out with the use of at least three replicates from the same cell passage.

MDA-MB-231 cells [1] = assay: Cellular uptake of metformin sulfonamides in MDA-MB-231 cells (HPLC); type: in vitro ADME, human; settings: for transport efficacy (Vmax/Km) in MCF-7 relative to MDA-MB-231: fold lower in MDA-MB-231 than in MCF-7
Description: The uptake of metformin sulfonamides (1–9) in MCF-7 and MDA-MB-231 cells was studied by incubation of the cells with 10−3000 μmol/L of compounds in 250 μL of prewarmed HBSS buffer at 37 °C for 10 min. Subsequently, the cells were then washed three times with 500 μL of ice-cold HBSS and lysed with 250 μL of 0.1-M NaOH. The samples were collected, centrifuged (5 min, 1400 rpm) and the supernatants were analyzed by the HPLC method. The concentration of each compound in the cells was calculated on the basis of the standard curve prepared by spiking known amounts of every compound on the cell layers in 250 μL of 0.1-M NaOH.
The concentration of the studied sulfonamides (1–9) was assessed using the HPLC system, consisting of an Agilent 1100 binary pump (Agilent Technologies Inc., Wilmington, DE, USA), an 1100 micro-vacuum degasser, an HP 1050 autosampler and an HP 1050 variable wavelength detector (operated at 235 nm). The chromatographic separations of compounds 1–9 were conducted on an Agilent Zorbax SB-C18 analytical column (4.6 mm × 150 mm, 5 μm) using an isocratic elution of water containing 0.1% formic acid (pH ca. 3.0) and acetonitrile containing 0.1% formic acid with a changing ratio, depending on the compound. The analyses were conducted at room temperature (RT). The detailed procedure of chromatographic analysis was described in our previous paper. The studies were conducted in quadruplicates.
The protein concentrations in representative wells of each plate were assessed using a Bio-Rad protein assay according to the Bradford method (EnVision, PerkinElmer, Inc., Waltham, MA, USA).

MDA-MB-231 cells [2] = assay: Cell viability WST-1 assay, MDA-MB-231; type: cell-based; settings: Homo sapiens, WST-1, 24 h; for viability at 3000 µM: MDA-MB-231, 24 h, 3000 µmol/L, read-out: percentage of viability of MDA-MB-231 cells
Description: The viability of MCF-7 and MDA-MB-231 cells was determined using a colorimetric WST-1 assay (Takara, Takara Bio Europe, Saint-Germain-en-Laye, France). Both cell lines were seeded at a density of 1 × 10^4 per well on 96-well plates and were cultured for 24 h to obtain 70% confluence. The following day, the cells were treated with various concentrations of compounds 1–9 diluted in the cell culture medium ([…]). The cells were incubated with tested compounds or pure medium (control) for 24 h (37 °C, 5% CO2). Afterwards, the cells were washed with 100 μL of culture medium, and then, the reagent dissolved in the medium was added (100 μL). The plates were incubated at the standard condition for 1.5 h, and the absorbance was read at 450 nm using a microplate reader (iMARK, Bio-Rad, Bio-Rad Laboratories Inc., Hercules, CA, USA). […] The results of samples treated with the test compounds were expressed as a percentage of the control samples. The data were presented as mean ± standard deviation (SD), n = 8. IC50 values (the concentration of the tested compound that inhibited cell growth by 50%) were calculated using a concentration-response curve (GraphPad Prism, Software, San Diego, CA, USA).
The concentrations contributing to the 50% of cell growth inhibition (IC50) were calculated using nonlinear regression analysis (fitting the curve to log (concentration) vs. cellular response).

MDA-MB-231 cells [3] = assay: Uptake in the presence of OCT and MATE inhibitors, MDA-MB-231 cells; type: in vitro ADME, human; settings: for interactions with OCT, PMAT and MATE1 transporters, MDA-MB-231: summary from uptake with inhibitors
Description: The uptake of sulfonamide derivatives of metformin (1–9) in MCF-7 and MDA-MB-231 cells was studied also in the presence of disopyramide, cimetidine (OCT1 and 3 inhibitors), lopinavir (OCT and PMAT inhibitor) and methenamine (MATE and OCT2 inhibitors). The cells were incubated (37 °C, 10 min) with compounds 1–9 at concentrations of 400 and 800 μmol/L and inhibitors (disopyramide, cimetidine, lopinavir or methenamine) in 250 μL of prewarmed HBSS buffer. The protocol of determination of the compound concentration was as described above.

[4] = Eadie-Hofstee analysis, transporter I
[5] = Eadie-Hofstee analysis, transporter I, read-out: Km, transporter I, MDA-MB-231
[6] = Eadie-Hofstee analysis, transporter II
[7] = Eadie-Hofstee analysis, transporter II, read-out: Km, transporter II, MDA-MB-231
[8] = compound and inhibitor 400 and 800 µmol/L, 10 min, 37 °C

IC50 (OCTs) [µM]	uptake into MDA-MB-231 cells (MDA-MB-231 cells [1]; 800 μmol/L, 10 min incubation, 37 °C) [nmol/min/mg protein]	uptake in MDA-MB-231 relative to MCF-7 (MDA-MB-231 cells [1]; fold more efficient in MDA-MB-231 than in MCF-7)	uptake in the presence of cimetidine, MDA-MB-231 (MDA-MB-231 cells [3]; [8])	uptake in the presence of disopyramide, MDA-MB-231 (MDA-MB-231 cells [3]; [8])	uptake in the presence of lopinavir, MDA-MB-231 (MDA-MB-231 cells [3]; [8])	interactions with OCT, PMAT and MATE1 transporters, MDA-MB-231 (MDA-MB-231 cells [3])	uptake in the presence of methenamine, MDA-MB-231 (MDA-MB-231 cells [3]; [8])	IC50 (MDA-MB-231 cells [2]; MDA-MB-231, mean ± SD (n = 6–8), read-out: IC50 inhibition of MDA-MB-231 cells' viability) [µM]	SMILES	Vmax, transporter I, MDA-MB-231 (MDA-MB-231 cells [1]; [4]) [nmol/min/mg]	Km (MDA-MB-231 cells [1]; [5]) [mM]	Vmax, transporter II, MDA-MB-231 (MDA-MB-231 cells [1]; [6]) [nmol/min/mg]	Km (MDA-MB-231 cells [1]; [7]) [mM]	viability at 3000 µM (MDA-MB-231 cells [2]) [%]	Vmax MDA-231 cells (Michaelis Menten curves) (MDA-MB-231 cells [1]; Michaelis-Menten curve) [nmol/min/mg]	Km (MDA-MB-231 cells [1]; Michaelis-Menten curve, read-out: Km MDA-231 cells (Michaelis Menten curves)) [mM]	transport efficacy (Vmax/Km) in MCF-7 relative to MDA-MB-231 (MDA-MB-231 cells [1])
920 ± 13	1.3 ± 0.21	approximately 130 fold	significantly decreased	significantly decreased	increased	OCT1, OCT3, PMAT	–	–	CN(C)C(=N)N=C(N)NS(=O)(=O)c1ccccc1Br [Compound 4]	10.27 ± 1.18	5.52 ± 0.748	21.44 ± 4.03	11.6 ± 2.44	~56.4	–	–	–
2135 ± 14	–	–	No statistically significant changes	significantly higher uptake	significantly higher uptake	OCT1, PMAT	No statistically significant changes	–	CN(C)C(=N)N=C(N)NS(=O)(=O)c1ccccc1Cl [Compound 1]	0.0182 ± 0.0026	3.07 ± 0.562	0.0261 ± 0.0040	3.3 ± 0.625	~60	0.047 ± 0.065	8.3 ± 3.27	over 370 fold
5149 ± 22	–	–	–	–	–	OCT1, OCT3	–	2590 ± 150	CN(C)C(=N)N=C(N)NS(=O)(=O)c1ccccc1F [Compound 7]	0.262 ± 0.035	1.53 ± 0.298	0.443 ± 0.026	2.25 ± 0.19	–	–	–	10 fold
